Assay results: patent US20240317708A1, “INHIBITORS OF TRANSGLUTAMINASES” (ZEDIRA GMBH, priority 2021, published 2024)
pIC50: −log10 of the molar value.

What was measured:
[1] = target: T1, recombinant human transglutaminase 2 (Homo sapiens, UniProt P21980); test: Transglutaminase assay (dansylcadaverine incorporation into dimethylcasein, DCC-assay); format: biochemical; conditions: recombinant human TG2 10 nM, dansylcadaverine/dimethylcasein, 37° C.
T1 construct: purchased Zedira T022
T1 sequence (P21980 1-687): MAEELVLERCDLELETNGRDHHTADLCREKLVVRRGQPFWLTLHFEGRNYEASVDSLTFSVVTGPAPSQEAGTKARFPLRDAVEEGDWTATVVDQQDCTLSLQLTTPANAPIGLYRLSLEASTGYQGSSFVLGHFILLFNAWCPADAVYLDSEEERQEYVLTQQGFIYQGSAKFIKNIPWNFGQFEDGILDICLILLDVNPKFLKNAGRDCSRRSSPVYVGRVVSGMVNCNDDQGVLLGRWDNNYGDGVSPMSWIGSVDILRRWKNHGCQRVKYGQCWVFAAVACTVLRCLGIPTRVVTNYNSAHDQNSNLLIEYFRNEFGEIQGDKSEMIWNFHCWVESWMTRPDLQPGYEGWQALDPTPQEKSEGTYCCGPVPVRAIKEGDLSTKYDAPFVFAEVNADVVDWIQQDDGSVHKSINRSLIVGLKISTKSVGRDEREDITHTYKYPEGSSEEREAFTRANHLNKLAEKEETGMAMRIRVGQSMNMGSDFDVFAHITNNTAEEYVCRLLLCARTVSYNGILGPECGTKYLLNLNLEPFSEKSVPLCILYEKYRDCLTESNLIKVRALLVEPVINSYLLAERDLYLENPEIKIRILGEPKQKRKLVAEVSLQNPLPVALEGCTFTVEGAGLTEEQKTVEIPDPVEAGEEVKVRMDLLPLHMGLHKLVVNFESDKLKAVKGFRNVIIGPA
Method in brief: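 IC50 derived from fluorescence slope between 20 and 30 min (λex 330 nm, λem 500 nm, 37 °C), expressed relative to a 2% DMSO control. Reaction: 10 nM recombinant human TG2, 4 μM dimethylcasein, 16.7 μM dansylcadaverine, 10 mM CaCl2 and glutathione, pH 8.0.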

[2] = Log D shake flask method (octanol / PBS pH 7.4, HPLC); format: physicochemical; conditions: octanol/phosphate-buffered saline (PBS); octanol / PBS pH 7.4, shake flask
Experimental: In order to classify the inventive compounds according to their lipophilicity, Log D values (distribution coefficient) were determined by means of the well-established shake flask method, measuring the partition of a compound between an octanol and phosphate-buffered saline (PBS, pH 7.4) by HPLC.

[3] = Caco-2 permeability assay (CacoReady kit); format: in vitro ADME; conditions: human
Method in brief: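 Compounds are tested on pre-formed Caco-2 barriers supplied as a ready-to-use kit, following the kit protocol, and the Papp value is derived to estimate intestinal absorption.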

pIC50 [1]	logD [2]	Papp [3]	SMILES
6.60 to 7.60	1 to 3	< 1 ×10⁻⁶ cm/s	COC(=O)/C=C/CC[C@H](NC(=O)c1nc[nH]n1)C(=O)Nc1cccn(CC(=O)NC2C3CC4CC(C3)CC2C4)c1=O (stereo partly drawn) [III-104, (S,E)-methyl 7-(1-(2-(2-adamantylamino)-2-oxoethyl)-2-oxo-1,2-dihydropyridin-3-ylamino)-7-oxo-6-(1H-1,2,4-triazole-3-carboxamido)hept-2-enoate]
6.60 to 7.60	1 to 3	1 to 10 ×10⁻⁶ cm/s	COC(=O)/C=C/CC[C@H](NC(=O)c1ncn(C)n1)C(=O)Nc1cccn(CC(=O)NC2C3CC4CC(C3)CC2C4)c1=O (stereo partly drawn) [III-105, (S,E)-methyl 7-(1-(2-(2-adamantylamino)-2-oxoethyl)-2-oxo-1,2-dihydropyridin-3-ylamino)-6-(1-methyl-1H-1,2,4-triazole-3-carboxamido)-7-oxohept-2-enoate]
6.60 to 7.60	3 to 5	1 to 10 ×10⁻⁶ cm/s	COC(=O)/C=C/CC[C@H](NC(=O)c1coc2ccccc12)C(=O)Nc1cccn(CC(=O)NC2C3CC4CC(C3)CC2C4)c1=O (stereo partly drawn) [III-106, (S,E)-methyl 6-(benzofuran-3-carboxamido)-7-(1-(2-(2-adamantylamino)-2-oxoethyl)-2-oxo-1,2-dihydropyridin-3-ylamino)-7-oxohept-2-enoate]
6.60 to 7.60	3 to 5	1 to 10 ×10⁻⁶ cm/s	COC(=O)/C=C/CC[C@H](NC(=O)c1csc2ccccc12)C(=O)Nc1cccn(CC(=O)NC2C3CC4CC(C3)CC2C4)c1=O (stereo partly drawn) [III-107, (S,E)-methyl 6-(benzo[b]thiophene-3-carboxamido)-7-(1-(2-(2-adamantylamino)-2-oxoethyl)-2-oxo-1,2-dihydropyridin-3-ylamino)-7-oxohept-2-enoate]
> 7.60	3 to 5	< 1 ×10⁻⁶ cm/s	COC(=O)/C=C/CC[C@H](NC(=O)c1snnc1C)C(=O)Nc1cccn(CC(=O)NC23CC4(C)CC(C)(CC(C)(C4)C2)C3)c1=O [III-108, (S,E)-methyl 7-(1-(2-(3,5,7-trimethyl-1-adamantylamino)-2-oxoethyl)-2-oxo-1,2-dihydropyridin-3-ylamino)-6-(4-methyl-1,2,3-thiadiazole-5-carboxamido)-7-oxohept-2-enoate]
> 7.60	3 to 5	< 1 ×10⁻⁶ cm/s	COC(=O)/C=C/CC[C@H](NC(=O)c1ccnn1C)C(=O)Nc1cccn(CC(=O)NC23CC4(C)CC(C)(CC(C)(C4)C2)C3)c1=O [III-109, (S,E)-methyl 7-(1-(2-(3,5,7-trimethyl-1-adamantylamino)-2-oxoethyl)-2-oxo-1,2-dihydropyridin-3-ylamino)-6-(1-methyl-1H-pyrazole-5-carboxamido)-7-oxohept-2-enoate]
> 7.60	1 to 3	< 1 ×10⁻⁶ cm/s	COC(=O)/C=C/CC[C@H](NC(=O)c1snnc1C)C(=O)Nc1cccn(CC(=O)N[C@@H]2C[C@H]3CC[C@@H]2C3)c1=O [III-110, (S,E)-methyl 7-(1-(2-((1R,2R,4S)-bicyclo[2.2.1]heptan-2-ylamino)-2-oxoethyl)-2-oxo-1,2-dihydropyridin-3-ylamino)-6-(4-methyl-1,2,3-thiadiazole-5-carboxamido)-7-oxohept-2-enoate]
> 7.60	1 to 3	< 1 ×10⁻⁶ cm/s	COC(=O)/C=C/CC[C@H](NC(=O)c1ccnn1C)C(=O)Nc1cccn(CC(=O)N[C@@H]2C[C@H]3CC[C@@H]2C3)c1=O [III-111, (S,E)-methyl 7-(1-(2-((1R,2R,4S)-bicyclo[2.2.1]heptan-2-ylamino)-2-oxoethyl)-2-oxo-1,2-dihydropyridin-3-ylamino)-6-(1-methyl-1H-pyrazole-5-carboxamido)-7-oxohept-2-enoate]
> 7.60	1 to 3	< 1 ×10⁻⁶ cm/s	COC(=O)/C=C/CC[C@H](NC(=O)c1snnc1C)C(=O)Nc1cccn(CC(=O)NC23CC4CC(C)(CC(C)(C4)C2)C3)c1=O [III-112, (S,E)-methyl 7-(1-(2-(3,5-dimethyladamantane-1-amino)-2-oxoethyl)-2-oxo-1,2-dihydropyridin-3-ylamino)-6-(4-methyl-1,2,3-thiadiazole-5-carboxamido)-7-oxohept-2-enoate]
